What all share (type): in vivo
One assay concerns Conyza Canadensis. In words: Post-emergence foliage spray on Conyza Canadensis with a height of 10 cm, fresh weight inhibition (Tables 207-216; 24 days). The settings on record: 24 days after treatment. As for the experimental part:
(§1) The above weeds were cultivated by a pot culture method. […] Full and uniform weed seeds were selected, soaked in warm water at 25° C. for 6 hours, and germinated in a 28° C. biochemical incubator (darkness). The weed seeds that had just germinatedwere evenly placed on the surface of the soil and then covered with 0.5-1 cm soil according to the sizes of seeds.
(§2) The technical materials were all dissolved in acetone, and diluted with an aqueous solution containing 0.1% emulsifier Tween-80. The dilution is performed as required.
(§3) A ratio of the active ingredient A to the active ingredient B and amounts thereof in each group depends on the characteristics and toxicity of the two agents, as well as the main application purpose of a corresponding formulation. Based on the pre-tests in this study, the dosage of the active ingredient A and B applied alone and in combination were shown in the tables. Water containing the solvent and emulsifier same with the above groups but free of the agents was used as a blank control.
In the stage of weeds with 6˜8 leaves, the weeds were thinned out to maintain 3 weeds per pot and 30 weeds for each treatment, then continued to be cultured to Conyza Canadensis with a height of 10 cm, and treated.
(§4) The well-cultured weeds were evenly placed on a platform with an area of 0.5 m^2, and a solution of agents was sprayed on the stems and leaves thereof by the 3WP-2000-type walking spray tower at a dosage of 450 kg/ha and at a spray pressure of 0.3 MPa. After all the solution was sprayed, the valve was closed. After 30 seconds, the door of the spray tower was opened, and the nutritional bowl was taken out. Then the valve was opened, and the spray tube was cleaned by spraying 50 ml of water.
(§5) A pot-culture method was employed. For the cultivation of weeds, please refer to the Section 1.1), and “Pesticide guidelines for laboratory bioactivity tests—herbicides”. As to a method for applying agents, please refer to the section 2.3.2), that is, a foliage treatment was employed. After the treatment, the weeds were routinely cultured in a greenhouse.
(§6) A method for investigating absolute number was employed, wherein whole seedlings of survival weeds were cut off with a blade along the soil surface, and the fresh weight of the weeds was weighed with an analytical balance. For dead weeds, the fresh weight thereof was zero.
(§7) Wherein, in the formula, X represented the fresh weight inhibition rate of the active ingredient A in a dosage of P, and Y represented the fresh weight inhibition rate of the active ingredient B in a dosage of Q.

The test system of the next assay is Eleusine indica. In words: Post-emergence foliage spray, pot culture, fresh weight inhibition (Tables 151-206; 20 days). The protocol: (§8) Table 151-206: Digitaria sanguinalis, Amaranthus retroflexus, Conyza Canadensis, Capsella bursa-pastoris, Eleusine indica were collected in Huangdao of Shandong Province, Sinapis arvensis were collected in Sixian of Anhui Province, Alopecurus japonicus were collected in Tianchang of Anhui Province, Veronica didyma were collected in Siyang of Jiangsu Province.
as §1
(§9) The culture was carried out in a controllable sunlight greenhouse at 20 to 30° C., in natural light, and relative humidity of 57% to 72%.
as §2, §3
(§10) Table 1-48, 51-98, 101-148, 151-206: […] per treatment, that is, a total of 60 weeds were treated in one treatment.
(§11) Table 151-206: The agents were used for only once in the experiment. In the stage of weeds with 3˜4 leaves, the weeds were thinned out to maintain 15 weeds per pot and 45 weeds for each treatment, then continued to be cultured to 4˜5 leaves stage of grassy weeds, 5˜6 leaves stage of broadleaf weeds, and treated.
as §4, §5, §6
(§12) Table 151-206: The investigation was performed after 20 days of the treatment for only once.
(§13) Theoretical fresh weight inhibition rate of a combination of two active ingredients in each group was calculated by the Gowing method (E0=X+Y−X*Y/100), and then compared with an actually measured inhibition rate (E), thereby effect of the combination (hereafter referred to as combined effect) on weeds was evaluated: the value of E-E0, which was greater than 10%, corresponded to a synergistic effect, the value of E-E0, which was less than −10%, corresponded to an antagonistic effect, and the value of E-E0, which was from −10% to 10%, corresponded to an additional effect.

The subject of a further assay is Alopecurus japonicus. The description is as above. As for the experimental part:
as §8, §1, §9, §2, §3, §10, §11, §4, §5, §6, §12, §13

The next assay deals with Digitaria sanguinalis. Described as above. As for the experimental part: as §8, §1, §9, §2, §3, §10, §11, §4, §5, §6, §12, §13
Another assay deals with Sinapis arvensis. The description is as above. The protocol: as §8, §1, §9, §2, §3, §10, §11, §4, §5, §6, §12, §13
A further assay has as its system Amaranthus retroflexus. The description is as above. As for the experimental part:
as §1, §2, §3
(§14) In the stage of weeds with 3˜4 leaves, the weeds were thinned out to maintain 15 weeds per pot and 45 weeds for each treatment, then continued to be cultured to 4˜5 leaves stage of grassy weeds, 5˜6 leaves stage of broadleaf weeds, and treated.
as §4, §5, §6, §7

Another assay concerns Capsella bursa-pastoris. Described as above. The protocol: as §1, §2, §3, §14, §4, §5, §6, §7
[1] abbreviates: B alone 75 g a.i./ha, 20 days after treatment.
Where [2] appears, read: B alone 150 g a.i./ha, 20 days after treatment.
Setting [3] is: B alone 300 g a.i./ha, 20 days after treatment.
Where [4] appears, read: B alone 600 g a.i./ha, 20 days after treatment.

For the molecule `Nc1cc(Cl)nc(C(=O)O)c1Cl` [aminopyralid], the entries for the “Control effect (%) of B applied alone in corresponding dose” value (“Control effect (%) of B applied alone” for short) in the assay with Conyza Canadensis (B alone 15 g a.i./ha) and with Conyza Canadensis (B alone 30 g a.i./ha) were 19.0% and 40.7%, respectively.
As for `Nc1c(Cl)c(F)nc(OCC(=O)O)c1Cl` [fluroxypyr], the “Control effect (%) of B applied alone” value with Conyza Canadensis (B alone 37.5 g a.i./ha) came out at 5.8%.
With `O=C(O)COc1nc(Cl)c(Cl)cc1Cl` [triclopyr], in the assay on Conyza Canadensis (B alone 300 g a.i./ha), the “Control effect (%) of B applied alone” value is 78.4%.
Turning to `Cc1cc(Cl)ccc1OCC(=O)O` [MCPA], in the assay on Conyza Canadensis (B alone 75 g a.i./ha), the “Control effect (%) of B applied alone” value turned out to be 18.8%.
With `Nc1c(Cl)c(Cl)nc(C(=O)O)c1Cl` [picloram], the “Control effect (%) of B applied alone” value with Conyza Canadensis (B alone 7.5 g a.i./ha) was determined as 5.0%; with Conyza Canadensis (B alone 60 g a.i./ha), 69.4%.
In the case of `COc1c(Cl)ccc(Cl)c1C(=O)O` [dicamba], in the assay with Conyza Canadensis (B alone 150 g a.i./ha), the “Control effect (%) of B applied alone” value is 58.7%.
Turning to `O=C(O)c1nc(Cl)ccc1Cl` [clopyralid], the “Control effect (%) of B applied alone” value in the assay with Conyza Canadensis (B alone 15 g a.i./ha) is 6.1%; in the assay on Conyza Canadensis (B alone 30 g a.i./ha), 29.8%; in the assay with Conyza Canadensis (B alone 60 g a.i./ha) it was 53.5%; with Conyza Canadensis (B alone 120 g a.i./ha), 82.8%.
In the case of `COc1c(Cl)ccc(-c2nc(C(=O)OCc3ccccc3)c(Cl)c(N)c2F)c1F` [florpyrauxifen benzyl], the entries for the “Control effect (%) of B applied alone” value in the assay with Conyza Canadensis (B alone 1.875 g a.i./ha) and in the assay on Conyza Canadensis (B alone 7.5 g a.i./ha) were 3.5% and 47.4%, respectively.
Regarding `O=C(O)CNCP(=O)(O)O` [glyphosate], the “Control effect (%) of B applied alone” value in the assay on Eleusine indica (B 75 g a.i./ha, 20 days) is on record as 6.9%; in the assay with Eleusine indica (B 150 g a.i./ha, 20 days), 13.6%; in the assay with Eleusine indica (B 300 g a.i./ha, 20 days), 21.3%; in the assay with Eleusine indica (B 600 g a.i./ha, 20 days) it was 68.9%; with Eleusine indica (setting [1]), 6.9%; with Eleusine indica (setting [2]), 13.6%. Also, the “Control effect (%) of B applied alone” value in the assay with Eleusine indica (setting [3]) is 21.3%; in the assay on Eleusine indica (setting [4]), 68.9%; in the assay with Alopecurus japonicus (B 75 g a.i./ha, 20 days) it was 7.6%; in the assay on Alopecurus japonicus (B 150 g a.i./ha, 20 days) it was 19.5%; in the assay with Alopecurus japonicus (B 300 g a.i./ha, 20 days) it was 30.8%; with Alopecurus japonicus (B 600 g a.i./ha, 20 days), 66.9%. The “Control effect (%) of B applied alone” value is reported as 7.6% with Alopecurus japonicus (setting [1]); 19.5% with Alopecurus japonicus (setting [2]); 30.8% in the assay on Alopecurus japonicus (setting [3]); 66.9% in the assay on Alopecurus japonicus (setting [4]); 12.3% in the assay on Digitaria sanguinalis (B 75 g a.i./ha, 20 days); 24.6% with Digitaria sanguinalis (B 150 g a.i./ha, 20 days). The “Control effect (%) of B applied alone” value amounted to 43.5% in the assay on Digitaria sanguinalis (B 300 g a.i./ha, 20 days); 76.4% in the assay with Digitaria sanguinalis (B 600 g a.i./ha, 20 days); 12.3% in the assay on Digitaria sanguinalis (setting [1]); 24.6% in the assay on Digitaria sanguinalis (setting [2]); 43.5% in the assay on Digitaria sanguinalis (setting [3]); 76.4% in the assay on Digitaria sanguinalis (setting [4]). Further, the “Control effect (%) of B applied alone” value is 2.5% in the assay with Sinapis arvensis (B 75 g a.i./ha, 20 days); 9.4% in the assay on Sinapis arvensis (B 150 g a.i./ha, 20 days); 19.8% in the assay on Sinapis arvensis (B 300 g a.i./ha, 20 days); 37.2% in the assay with Sinapis arvensis (B 600 g a.i./ha, 20 days); 2.5% in the assay on Sinapis arvensis (setting [1]); 9.4% in the assay with Sinapis arvensis (setting [2]). For the same molecule, the “Control effect (%) of B applied alone” value with Sinapis arvensis (setting [3]) was 19.8%; in the assay with Sinapis arvensis (setting [4]), 37.2%.
Regarding `O=C(O)c1c(Cl)ccc2cc(Cl)cnc12` [quinclorac], the “Control effect (%) of B applied alone” value was 11.7% with Conyza Canadensis (B alone 30 g a.i./ha), 28.8% in the assay with Conyza Canadensis (B alone 60 g a.i./ha), 53.7% in the assay with Conyza Canadensis (B alone 120 g a.i./ha) and 76.2% in the assay on Conyza Canadensis (B alone 240 g a.i./ha).
Regarding `CP(=O)(O)CCC(N)C(=O)O` (centres unmarked) [glufosinate ammonium], the “Control effect (%) of B applied alone” value in the assay on Amaranthus retroflexus (B 75 g a.i./ha, 20 days) turned out to be 10.2%; in the assay on Amaranthus retroflexus (B 150 g a.i./ha, 20 days) it was 19.6%; in the assay with Amaranthus retroflexus (B 300 g a.i./ha, 20 days), 28.6%; in the assay on Amaranthus retroflexus (B 600 g a.i./ha, 20 days), 54.1%; in the assay on Amaranthus retroflexus (setting [1]), 10.2%; in the assay with Amaranthus retroflexus (setting [2]) it was 19.6%. The “Control effect (%) of B applied alone” value in the assay with Amaranthus retroflexus (setting [3]) was 28.6%; in the assay on Amaranthus retroflexus (setting [4]) it was 54.1%; in the assay on Capsella bursa-pastoris (B 75 g a.i./ha, 20 days), 2.1%; with Capsella bursa-pastoris (B 150 g a.i./ha, 20 days), 8.7%; with Capsella bursa-pastoris (B 300 g a.i./ha, 20 days), 15.3%; in the assay with Capsella bursa-pastoris (B 600 g a.i./ha, 20 days), 34.5%. Moreover, the “Control effect (%) of B applied alone” value in the assay with Capsella bursa-pastoris (setting [1]) came to 2.1%; in the assay with Capsella bursa-pastoris (setting [2]) it was 8.7%; with Capsella bursa-pastoris (setting [3]), 15.3%; in the assay on Capsella bursa-pastoris (setting [4]), 34.5%.
As to `COC(=O)c1nc(-c2ccc(Cl)c(OC)c2F)cc(N)c1Cl` [halauxifen-methyl], the “Control effect (%) of B applied alone” value is reported as 20.5% with Conyza Canadensis (B alone 3.75 g a.i./ha) and 81.5% in the assay with Conyza Canadensis (B alone 15 g a.i./ha).

The record behind these values is US20220264878A1, “HERBICIDAL COMPOSITION CONTAINING R-TYPE PYRIDYLOXY CARBOXYLIC ACID DERIVATIVE AND USE THEREOF” (Qingdao Kingagroot Chemical Compound Co., Ltd., priority 2019, published 2022).
